In patent US20060062865A1, “Tyrosinase inhibitor and method for preparation” (priority 2004, published 2006):

Tested on: mushroom tyrosinase
Experiment: Mushroom tyrosinase in vitro enzyme assay (absorbance at 492 nm)
Assay type: biochemical
Settings: in vitro tyrosinase (mushroom) enzyme activity
Method: Enzyme assay. The mushroom tyrosinase was used for the bioassay. It was purchased from Sigma Chemical Co. (St. Louis, Mo.). The assay was performed by adding 200 microliters of reaction cocktail (mixture of potassium phosphate buffer 50 mM, pH 6.5, 10 ml; 1 mM tyrosine solution, 10 ml and deionized water, 9 ml) and 10 microliters of tested extract dissolved in ethanol at concentration of 1 mg/ml followed by 10 microliters of tyrosinase (1000 units/ml) to 96-well plate. After 2 min incubation at room temperature, the initial absorbance was read at 492 nm on the plate reader. Final absorbance values were read after 10 minutes. The enzyme activity was calculated from the differential values for absorbance and then converted into inhibitory activity. Kojic acid was used as standard at a concentration of 1 mg/ml dissolved in 95% ethanol.

O=c1cc(CO)occ1O [Kojic acid]
Inhibition at 1 mg/ml (sample 1 mg/ml in ethanol, tyrosine substrate, Table 1 experiment): 88% | Inhibition at 1 mg/ml (sample 1 mg/ml, extracts of different plant parts, Table 2 experiment): 86%
